Patent US12016906B2, “Pharmaceutical composition for anaemia” (Frimline Private Limited, priority 2018, dated 2024)

Experiments:
Type in all cases: in vivo, male Wistar rats (Rat Rattus)
[1] = tested on: Iron deficient Diet (IDD) induced anaemia in rats; experiment: IL-6 level in IDD induced anaemia in rats; conditions: IDD rats; for IL-6 Post-treatment: Day 98, after 9 weeks of treatment p.o.; for IL-6 % Change compared to Disease control: Day 98
Protocol: (§1) Screening of pharmaceutical composition/formulation comprising combination of Lactoferrin+Guanosine Nucleotide or a pharmaceutically acceptable salt thereof with or without optional ingredients against Iron deficient Diet (IDD) induced anaemia in rats. For this study different parameters like Hb Level, Hematocrit level, Serum Iron level, Ferroportin level, Serum Ferritin level, Hepcidin level and IL-6 Level were evaluated. The following trials were carried out by taking reference from Wang Xl, Liu S, Xu H, Yan W, Effects of recombinant human lactoferrin on improving the iron status of IDA. Wei Sheng Yan Jiu.
(§2) 72 male Wistar rats (Rat Rattus) (6 per group) were maintained in animal house in a light/dark atmosphere based on a 12 hour cycle having temperature and relative humidity in the range of 22±3° C. and 30-70% respectively. To maintain the appropriate conditions, temperature and relative humidity were recorded three times daily. All animals were acclimatized for a minimum period of five days. Animals were maintained in the test setup for minimum 30 minutes once during the acclimatization period to reduce the stress. Animals were weighed on the day of receipt and observed daily for abnormalities if any. Detailed records of acclimatization were also maintained. Rats were housed 6 per cage in clean, sterilized Polypropylene cages. During complete experiment, animals were supplied with the standard certified rat pellet feed (manufactured by Keval sales corporation, Vadodara) and drinking water treated by the reverse osmosis ad libitum. Analysis reports for microbial load and contaminants in feed and water and nutrient content of feed were also retained.
(§3) In order to evaluate the activity against IDD induced anaemia, seventy two (72) rats were screened and divided in to twelve groups. For a comparative analysis, groups were divided as normal control (Group 1), disease control (Group 2), treatment groups with individual components (Group 3, Group 4, Group 5, Group 6 and Group 7 as Lactoferrin, Disodium Guanosine monophosphate (GMP), Guanosine diphosphate (GDP), Guanosine triphosphate (GTP) and Vitamin C respectively), test composition/formulation of the present invention (Group 8 as combination of Lactoferrin Disodium GMP, Group 9 as combination of Lactoferrin GDP, Group 10 as combination of Lactoferrin+GTP, […] as combination of Lactoferrin+Disodium GMP+Vitamin C) and reference standard drug (Group 12). Table 1 provides the details of the various groups and treatments conducted in the trial wherein group no. G3 to G12 are treatment groups.
(§4) After 5 weeks (35 days) of respective dietary intervention, once again hemoglobin level, HCT % level and serum iron level were analyzed and then, respective drug treatment was started with continuous administration of Iron deficient diets in all groups as mentioned above in Table 1.
(§5) After 9 weeks of respective drug treatment (total after 14 weeks from start of the study—98 days), various biochemical parameters were measured to evaluate the effect of respective individual and combination therapy on iron deficient anaemia model (G3 to G12).
• A. Clinical observations (Daily) • B. Mortality (Daily) • C. Body weight (Initially and then weekly till the end of study) • D. After 3 and 5 weeks of Iron deficient diet supplement • (i) Hematological parameters (RBC count, Hb Level, Hematocrit % MCV, MCH and MCHC). • (ii) Serum Iron Level. • E. At the end of 14 weeks of study • (i) Hematological parameters (RBC count, Hb Level, Hematocrit %, MCV, MCH and MCHC). • (ii) Biochemical parameters (Serum Iron level, Ferroportin level, Serum Ferritin level, Hepcidin level, IL-6 level). Statistical Analysis: One way ANOVA followed by Tuckey's test was performed and p value<0.05 is considered to be statistically significant. […] Hematology: (after 3 Weeks and 5 Weeks of Feed Intervention and after 9 Weeks of Treatment)

[2] = tested on: Iron deficient Diet (IDD) induced anaemia in rats; experiment: Ferroportin level in IDD induced anaemia in rats; parameters: Ferroportin % Change compared to Disease control: concentration or dose not given beside the values; conditions: IDD rats; for Ferroportin Post-treatment: Day 98, after 9 weeks of treatment p.o.; for Ferroportin % Change compared to Disease control: Day 98
Protocol: as §1, with “Jiu. 2012 January; 41(1):13-7, 22 and Nora M. El-Sheikh, the Protective Effect of Soybean and Thyme on Iron Deficiency Anemia in Rats, the Egyptian Journal of Hospital Medicine (2008) Vol., 33: 510-520 as available.” for “Jiu.”
as §2, §3
(§6) Group nos. 2 to 12 animals under consideration were administered IDD (3 mg Fe/Kg of diet) for the period of 3 weeks, while group 1 animal received Normal pellet diet (35 mg Fe/Kg of diet).
as §4, §5
(§7) • A. Clinical observations (Daily) • B. Mortality (Daily) • C. […]

[3] = tested on: Iron deficient Diet (IDD) induced anaemia in rats; experiment: Hepcidin level in IDD induced anaemia in rats; parameters: Hepcidin % Change compared to Disease control: concentration or dose not given beside the values; conditions: IDD rats; for Hepcidin Post-treatment: Day 98, after 9 weeks of treatment p.o.; for Hepcidin % Change compared to Disease control: Day 98
Protocol: as §1, with “Jiu. 2012 January; 41(1):13-7, 22 and Nora M. El-Sheikh, the Protective Effect of Soybean and Thyme on Iron Deficiency Anemia in Rats, the Egyptian Journal of Hospital Medicine (2008) Vol., 33: 510-520 as available.” for “Jiu.”
as §2, §3, §6, §4, §5, §7

[4] = tested on: Iron deficient Diet (IDD) induced anaemia in rats; experiment: Hb level in IDD induced anaemia in rats; parameters: Hemoglobin % Change compared to Disease control: concentration or dose not given beside the values; conditions: IDD rats; for Hemoglobin Pre-treatment: Day 35, before treatment; for Hemoglobin Post-treatment: Day 98, after 9 weeks of treatment p.o.; for Hemoglobin % Change compared to Disease control: Day 98
Protocol: as §1, §2, §3
After 3 weeks of respective dietary intervention, the level of Hemoglobin was determined in each animal.
as §4, §5
• A. Clinical observations (Daily) • B. Mortality (Daily) • C. Body weight (Initially and then weekly till the end of study) • D. After 3 and 5 weeks of Iron deficient diet supplement • (i) Hematological parameters (RBC count, Hb Level, Hematocrit % MCV, MCH and MCHC). • (ii) Serum Iron Level. • E. At the end of 14 weeks of study • (i) Hematological parameters (RBC count, Hb Level, Hematocrit %, MCV, MCH and MCHC). • (ii) Biochemical parameters (Serum Iron level, Ferroportin level, Serum Ferritin level, Hepcidin level, IL-6 level).

[5] = tested on: Iron deficient Diet (IDD) induced anaemia in rats; experiment: Serum ferritin level in IDD induced anaemia in rats; parameters: Ferritin % Change compared to Disease control: concentration or dose not given beside the values; conditions: IDD rats; for Ferritin Post-treatment: Day 98, after 9 weeks of treatment p.o.; for Ferritin % Change compared to Disease control: Day 98
Protocol: as §1, with “Jiu. 2012 January; 41(1):13-7, 22 and Nora M. El-Sheikh, the Protective Effect of Soybean and Thyme on Iron Deficiency Anemia in Rats, the Egyptian Journal of Hospital Medicine (2008) Vol., 33: 510-520 as available.” for “Jiu.”
as §2, §3, §6, §4, §5, §7

[6] = tested on: Iron deficient Diet (IDD) induced anaemia in rats; experiment: Serum iron level in IDD induced anaemia in rats; parameters: Serum IRON % Change compared to Disease control: concentration or dose not given beside the values; conditions: IDD rats; for Serum IRON Pre-treatment: Day 35, before treatment; for Serum IRON Post-treatment: Day 98, after 9 weeks of treatment p.o.; for Serum IRON % Change compared to Disease control: Day 98
Protocol: as §1, with “Jiu. 2012 January; 41(1):13-7, 22 and Nora M. El-Sheikh, the Protective Effect of Soybean and Thyme on Iron Deficiency Anemia in Rats, the Egyptian Journal of Hospital Medicine (2008) Vol., 33: 510-520 as available.” for “Jiu.”
as §2, §3, §6
(§8) After 3 weeks of respective dietary intervention, the level of Hemoglobin was determined in each animal. Looking at low increase in hemoglobin. Hematocrit % (HCT %) level and serum iron level, further dietary intervention was continued for additional two (2) weeks.
as §4, §5, §7

[7] = tested on: Iron deficient Diet (IDD) induced anaemia in rats; experiment: Hematocrit % level in IDD induced anaemia in rats; parameters: Hematocrit % Change compared to Disease control: concentration or dose not given beside the values; conditions: IDD rats; for Hematocrit Pre-treatment: Day 35, before treatment; for Hematocrit Post-treatment: Day 98, after 9 weeks of treatment p.o.; for Hematocrit % Change compared to Disease control: Day 98
Protocol: as §1, with “Jiu. 2012 January; 41(1):13-7, 22 and Nora M. El-Sheikh, the Protective Effect of Soybean and Thyme on Iron Deficiency Anemia in Rats, the Egyptian Journal of Hospital Medicine (2008) Vol., 33: 510-520 as available.” for “Jiu.”
as §2, §3, §6, §8, §4, §5, §7

Nc1nc2c(ncn2[C@@H]2O[C@H](COP(=O)(O)OP(=O)(O)OP(=O)(O)O)[C@@H](O)[C@H]2O)c(=O)[nH]1 [GTP, Guanosine triphosphate]
IL-6 Post-treatment [1]: 62.2 pg/mL
IL-6 % Change compared to Disease control [1]: −0.2%
Ferroportin Post-treatment [2]: 3.0 ng/mL
Ferroportin % Change compared to Disease control [2]: 9.5%
Hepcidin Post-treatment [3]: 4392 ng/mL
Hepcidin % Change compared to Disease control [3]: −0.2%
Hemoglobin Pre-treatment [4]: 8.45 g/dL
Hemoglobin Post-treatment [4]: 9.12 g/dL
Hemoglobin % Change compared to Disease control [4]: 39.9%
Ferritin Post-treatment [5]: 698 ng/mL
Ferritin % Change compared to Disease control [5]: −5.7%
Serum IRON Pre-treatment [6]: 3.03 ppm
Serum IRON Post-treatment [6]: 3.98 ppm
Serum IRON % Change compared to Disease control [6]: 49.2%
Hematocrit Pre-treatment [7]: 35.74%
Hematocrit Post-treatment [7]: 37.96%
Hematocrit % Change compared to Disease control [7]: 11.7%

Vit C
IL-6 Post-treatment [1]: 63.4 pg/mL
IL-6 % Change compared to Disease control [1]: 1.6%
Ferroportin Post-treatment [2]: 3.1 ng/mL
Ferroportin % Change compared to Disease control [2]: 12.9%
Hepcidin Post-treatment [3]: 4267 ng/mL
Hepcidin % Change compared to Disease control [3]: −3.0%
Hemoglobin Pre-treatment [4]: 8.28 g/dL
Hemoglobin Post-treatment [4]: 9.22 g/dL
Hemoglobin % Change compared to Disease control [4]: 41.5%
Ferritin Post-treatment [5]: 689 ng/mL
Ferritin % Change compared to Disease control [5]: −6.9%
Serum IRON Pre-treatment [6]: 2.76 ppm
Serum IRON Post-treatment [6]: 3.54 ppm
Serum IRON % Change compared to Disease control [6]: 32.7%
Hematocrit Pre-treatment [7]: 35.64%
Hematocrit Post-treatment [7]: 37.24%
Hematocrit % Change compared to Disease control [7]: 44.9%
